ChEMBL document CHEMBL1149753, “Two new alkaloids from Xestospongia sp., a New Caledonian sponge” (1992)
Values after ≈ are worked out from the molar mass of the structure shown. Active and inactive are the calls of the source. The rule behind the calls is not given here.

Tests used:
L1210 = assay: Cytotoxicity against mouse L1210 cells; format: functional; settings: for EC50: read-out: ED50 (the source's name)
KB = assay: Cytotoxicity against human KB cells; format: functional; settings: for EC50: read-out: ED50 (the source's name)
P388 = assay: In vivo antitumor activity against mouse P388 cells; format: functional, organism-based

SMILES | ED50 (L1210) | ED50 (KB) | EC50 (L1210) | EC50 (KB) | Activity (P388)
CN(C)CC1NCCc2c1[nH]c1ccccc21 (stereo unspecified) | inactive | inactive |  |  | 
O[C@@]12CCCCCC[C@H]3CCN4CCC[C@@H](CCCCCC[C@H]5CCN(CCC1)[C@@H]2O5)[C@H]4O3 [DEMETHYLXESTOSPONGIN B] |  |  | 0.8 µg/mL (≈ 1.73 µM) | 2.5 µg/mL (≈ 5.4 µM) | inactive
C[C@@H]1CN2CCC[C@H]3CCCCCC[C@H]4CCN5CCC[C@@](O)(CCCCCC[C@@H]1O[C@H]32)[C@H]5O4 [XESTOSPONGIN B] |  |  | 2 µg/mL (≈ 4.2 µM) | 2.5 µg/mL (≈ 5.24 µM) | inactive
O[C@@]12CCCCCC[C@H]3CCN4CCC[C@H](CCCCCC[C@H]5CCN(CCC1)[C@@H]2O5)[C@H]4O3 [XESTOSPONGIN D] |  |  | 0.2 µg/mL (≈ 0.432 µM) | 2 µg/mL (≈ 4.32 µM) | inactive
